Experimental data taken from US20260007681A1, “INDOLE DERIVATIVES AS ESTROGEN RECEPTOR DEGRADERS” (REGENTS OF THE UNIVERSITY OF MICHIGAN, priority 2022, published 2026).

Columns and labels:
[1] = target: ER (Homo sapiens (Human), UniProt P03372); assay: In-cell western blot analysis of relative ER percentage (Compounds B1-B278); assay type: cell-based; conditions: ER degradation, 16 hours, read-out: ICW DC50
Method in brief: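 In-cell western: after 16 h compound exposure (0.5% DMSO final), fixed and permeabilized cells are probed with anti-ER plus anti-GAPDH and near-infrared secondaries. Relative ER percentage compares treated wells against untreated and DMSO wells taken as 100%; seeding 40,000 or 10,000 cells/well.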

[2] = Cell growth assay (WST-8) (Compounds B1-B278); assay type: cell-based; conditions: 96 h; T47D cell line; WST-8, 4 days; read-out: Cell Growth Inhibition in T47D cell line IC50
Method in brief: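 Read-out is WST-8 absorbance at 450 nm (2.5 h, 37° C) as a fraction of vehicle control, from three separate repeats. Compound exposure lasted 4 days, starting one day after plating 1500 cells/well.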

Sequence of ER (P03372 whole entry): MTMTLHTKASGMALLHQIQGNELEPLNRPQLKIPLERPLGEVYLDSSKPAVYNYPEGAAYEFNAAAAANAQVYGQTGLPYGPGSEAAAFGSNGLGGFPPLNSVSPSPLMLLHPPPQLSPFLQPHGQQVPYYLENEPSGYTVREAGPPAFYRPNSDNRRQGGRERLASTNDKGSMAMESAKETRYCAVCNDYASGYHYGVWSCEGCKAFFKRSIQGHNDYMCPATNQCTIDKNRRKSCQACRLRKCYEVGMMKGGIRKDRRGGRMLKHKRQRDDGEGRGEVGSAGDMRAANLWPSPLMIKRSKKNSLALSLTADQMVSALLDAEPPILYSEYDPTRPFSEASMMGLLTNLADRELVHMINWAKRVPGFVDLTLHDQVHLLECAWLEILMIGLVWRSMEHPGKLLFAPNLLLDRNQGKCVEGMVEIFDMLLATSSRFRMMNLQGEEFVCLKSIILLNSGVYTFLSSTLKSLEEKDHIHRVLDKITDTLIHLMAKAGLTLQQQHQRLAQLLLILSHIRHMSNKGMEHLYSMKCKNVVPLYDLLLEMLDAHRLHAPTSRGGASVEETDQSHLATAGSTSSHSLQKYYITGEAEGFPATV

| DC50 [1] | Structure (SMILES) | IC50 [2] |
| --- | --- | --- |
| > 100 nM | C[C@@H]1Cc2c([nH]c3ccccc23)[C@@H](c2c(F)cc(N3CCC(CN4CCN5c6ccc7c(c6OC[C@H]5C4)CN(C4CCC(=O)NC4=O)C7=O)CC3)cc2F)N1CC(F)(F)CO (stereo partly drawn) [Compound B148, 3-((R)-7-((1-(4-((1R,3R)-2-(2,2-difluoro-3-hydroxypropyl)-3-methyl-2,3,4,9-tetrahydro-1H-pyrido[3,4-b]indol-1-yl)-3,5-difluorophenyl)piperidin-4-yl)methyl)-1-oxo-1,3,5,5a,6,7,8,9-octahydro-2H-pyrazino[1′,2′:4,5][1,4]oxazino[2,3-e]isoindol-2-yl)piperidine-2,6-dione] | < 1 nM |
| > 100 nM | C[C@@H]1Cc2c([nH]c3ccccc23)[C@@H](c2c(F)cc(N3CC[C@@H](CN4CCN5c6ccc7c(c6OC[C@H]5C4)CN(C4CCC(=O)NC4=O)C7=O)C3)cc2F)N1CC(F)(F)CO (stereo partly drawn) [Compound B149, 3-((R)-7-(((S)-1-(4-((1R,3R)-2-(2,2-difluoro-3-hydroxypropyl)-3-methyl-2,3,4,9-tetrahydro-1H-pyrido[3,4-b]indol-1-yl)-3,5-difluorophenyl)pyrrolidin-3-yl)methyl)-1-oxo-1,3,5,5a,6,7,8,9-octahydro-2H-pyrazino[1′,2′:4,5][1,4]oxazino[2,3-e]isoindol-2-yl)piperidine-2,6-dione] | 1 to 10 nM |
| 10 to 100 nM | C[C@@H]1Cc2c([nH]c3ccccc23)[C@@H](c2c(F)cc(N3CC[C@H](CN4CCN5c6ccc7c(c6OC[C@H]5C4)CN(C4CCC(=O)NC4=O)C7=O)C3)cc2F)N1CC(F)(F)CO (stereo partly drawn) [Compound B150, 3-((R)-7-(((R)-1-(4-((1R,3R)-2-(2,2-difluoro-3-hydroxypropyl)-3-methyl-2,3,4,9-tetrahydro-1H-pyrido[3,4-b]indol-1-yl)-3,5-difluorophenyl)pyrrolidin-3-yl)methyl)-1-oxo-1,3,5,5a,6,7,8,9-octahydro-2H-pyrazino[1′,2′:4,5][1,4]oxazino[2,3-e]isoindol-2-yl)piperidine-2,6-dione] | 1 to 10 nM |
| > 100 nM | C[C@@H]1Cc2c([nH]c3ccccc23)[C@@H](c2c(F)cc(N3CCN(C(=O)CN4CCN5c6ccc7c(c6OC[C@H]5C4)CN(C4CCC(=O)NC4=O)C7=O)CC3)cc2F)N1CC(F)F (stereo partly drawn) [Compound B151, 3-((R)-7-(2-(4-(4-((1R,3R)-2-(2,2-difluoroethyl)-3-methyl-2,3,4,9-tetrahydro-1H-pyrido[3,4-b]indol-1-yl)-3,5-difluorophenyl)piperazin-1-yl)-2-oxoethyl)-1-oxo-1,3,5,5a,6,7,8,9-octahydro-2H-pyrazino[1′,2′:4,5][1,4]oxazino[2,3-e]isoindol-2-yl)piperidine-2,6-dione] | < 1 nM |
| 10 to 100 nM | C[C@@H]1Cc2c([nH]c3ccccc23)[C@@H](c2cnc(N3CCC4(CC3)CC(CN3CCN5c6ccc7c(c6OC[C@H]5C3)CN(C3CCC(=O)NC3=O)C7=O)C4)nc2)N1CC(F)(F)CO (stereo partly drawn) [Compound B153, 3-((R)-7-((7-(5-((1R,3R)-2-(2,2-difluoro-3-hydroxypropyl)-3-methyl-2,3,4,9-tetrahydro-1H-pyrido[3,4-b]indol-1-yl)pyrimidin-2-yl)-7-azaspiro[3.5]nonan-2-yl)methyl)-1-oxo-1,3,5,5a,6,7,8,9-octahydro-2H-pyrazino[1′,2′:4,5][1,4]oxazino[2,3-e]isoindol-2-yl)piperidine-2,6-dione] | 1 to 10 nM |
| 10 to 100 nM | C[C@@H]1Cc2c([nH]c3ccccc23)[C@@H](c2cnc(N3CC4(CCC(CN5CCN6c7ccc8c(c7OC[C@H]6C5)CN(C5CCC(=O)NC5=O)C8=O)CC4)C3)nc2)N1CC(F)(F)CO (stereo partly drawn) [Compound B154, 3-((R)-7-((2-(5-((1R,3R)-2-(2,2-difluoro-3-hydroxypropyl)-3-methyl-2,3,4,9-tetrahydro-1H-pyrido[3,4-b]indol-1-yl)pyrimidin-2-yl)-2-azaspiro[3.5]nonan-7-yl)methyl)-1-oxo-1,3,5,5a,6,7,8,9-octahydro-2H-pyrazino[1′,2′:4,5][1,4]oxazino[2,3-e]isoindol-2-yl)piperidine-2,6-dione] | 1 to 10 nM |
| > 100 nM | C[C@@H]1Cc2c([nH]c3ccccc23)[C@@H](c2cnc(N3CCC4(CC3)CC(N3CCN5c6ccc7c(c6OC[C@H]5C3)CN(C3CCC(=O)NC3=O)C7=O)C4)nc2)N1CC(F)F (stereo partly drawn) [Compound B155, 3-((R)-7-(7-(5-((1R,3R)-2-(2,2-difluoroethyl)-3-methyl-2,3,4,9-tetrahydro-1H-pyrido[3,4-b]indol-1-yl)pyrimidin-2-yl)-7-azaspiro[3.5]nonan-2-yl)-1-oxo-1,3,5,5a,6,7,8,9-octahydro-2H-pyrazino[1′,2′:4,5][1,4]oxazino[2,3-e]isoindol-2-yl)piperidine-2,6-dione] | 1 to 10 nM |
| > 100 nM | C[C@@H]1Cc2c([nH]c3ccccc23)[C@@H](c2cnc(N3CC4(CCC(N5CCN6c7ccc8c(c7OC[C@H]6C5)CN(C5CCC(=O)NC5=O)C8=O)CC4)C3)nc2)N1CC(F)F (stereo partly drawn) [Compound B156, 3-((R)-7-(2-(5-((1R,3R)-2-(2,2-difluoroethyl)-3-methyl-2,3,4,9-tetrahydro-1H-pyrido[3,4-b]indol-1-yl)pyrimidin-2-yl)-2-azaspiro[3.5]nonan-7-yl)-1-oxo-1,3,5,5a,6,7,8,9-octahydro-2H-pyrazino[1′,2′:4,5][1,4]oxazino[2,3-e]isoindol-2-yl)piperidine-2,6-dione] | > 10 nM |
| > 100 nM | C[C@@H]1Cc2c([nH]c3ccccc23)[C@@H](c2cnc(N3CCC4(CC(CN5CCN6c7ccc8c(c7OC[C@H]6C5)CN(C5CCC(=O)NC5=O)C8=O)C4)C3)nc2)N1CC(F)F (stereo partly drawn) [Compound B157, 3-((R)-7-((6-(5-((1R,3R)-2-(2,2-difluoroethyl)-3-methyl-2,3,4,9-tetrahydro-1H-pyrido[3,4-b]indol-1-yl)pyrimidin-2-yl)-6-azaspiro[3.4]octan-2-yl)methyl)-1-oxo-1,3,5,5a,6,7,8,9-octahydro-2H-pyrazino[1′,2′:4,5][1,4]oxazino[2,3-e]isoindol-2-yl)piperidine-2,6-dione] | 1 to 10 nM |
| > 100 nM | C[C@@H]1Cc2c([nH]c3ccccc23)[C@@H](c2cnc(N3CC4(CCC(N5CCN6c7ccc8c(c7OC[C@H]6C5)CN(C5CCC(=O)NC5=O)C8=O)CC4)C3)nc2)N1CC(F)(F)CO (stereo partly drawn) [Compound B158, 3-((R)-7-(2-(5-((1R,3R)-2-(2,2-difluoro-3-hydroxypropyl)-3-methyl-2,3,4,9-tetrahydro-1H-pyrido[3,4-b]indol-1-yl)pyrimidin-2-yl)-2-azaspiro[3.5]nonan-7-yl)-1-oxo-1,3,5,5a,6,7,8,9-octahydro-2H-pyrazino[1′,2′:4,5][1,4]oxazino[2,3-e]isoindol-2-yl)piperidine-2,6-dione] | < 1 nM |
| > 100 nM | C[C@@H]1Cc2c([nH]c3ccccc23)[C@@H](c2cnc(N3CCC(CCN4CCN5c6ccc7c(c6OC[C@H]5C4)CN(C4CCC(=O)NC4=O)C7=O)CC3)nc2)N1CC(F)(F)CO (stereo partly drawn) [Compound B159, 3-((R)-7-(2-(1-(5-((1R,3R)-2-(2,2-difluoro-3-hydroxypropyl)-3-methyl-2,3,4,9-tetrahydro-1H-pyrido[3,4-b]indol-1-yl)pyrimidin-2-yl)piperidin-4-yl)ethyl)-1-oxo-1,3,5,5a,6,7,8,9-octahydro-2H-pyrazino[1′,2′:4,5][1,4]oxazino[2,3-e]isoindol-2-yl)piperidine-2,6-dione] | > 10 nM |
| > 100 nM | C[C@@H]1Cc2c([nH]c3ccccc23)[C@@H](c2cnc(N3CCC(CCN4CCN5c6ccc7c(c6OC[C@H]5C4)CN(C4CCC(=O)NC4=O)C7=O)CC3)nc2)N1CC(F)F (stereo partly drawn) [Compound B160, 3-((R)-7-(2-(1-(5-((1R,3R)-2-(2,2-difluoroethyl)-3-methyl-2,3,4,9-tetrahydro-1H-pyrido[3,4-b]indol-1-yl)pyrimidin-2-yl)piperidin-4-yl)ethyl)-1-oxo-1,3,5,5a,6,7,8,9-octahydro-2H-pyrazino[1′,2′:4,5][1,4]oxazino[2,3-e]isoindol-2-yl)piperidine-2,6-dione] | 1 to 10 nM |
| > 100 nM | C[C@@H]1Cc2c([nH]c3ccccc23)[C@@H](c2cnc(N3CCC4(CCC(CN5CCN6c7ccc8c(c7OC[C@H]6C5)CN(C5CCC(=O)NC5=O)C8=O)CC4)CC3)nc2)N1CC(F)F (stereo partly drawn) [Compound B161, 3-((R)-7-((3-(5-((1R,3R)-2-(2,2-difluoroethyl)-3-methyl-2,3,4,9-tetrahydro-1H-pyrido[3,4-b]indol-1-yl)pyrimidin-2-yl)-3-azaspiro[5.5]undecan-9-yl)methyl)-1-oxo-1,3,5,5a,6,7,8,9-octahydro-2H-pyrazino[1′,2′:4,5][1,4]oxazino[2,3-e]isoindol-2-yl)piperidine-2,6-dione] | > 10 nM |
| > 100 nM | C[C@@H]1Cc2c([nH]c3ccccc23)[C@@H](c2cnc(N3CCC4(CCC(CN5CCN6c7ccc8c(c7OC[C@H]6C5)CN(C5CCC(=O)NC5=O)C8=O)CC4)CC3)nc2)N1CC(C)(C)F (stereo partly drawn) [Compound B162, 3-((R)-7-((3-(5-((1R,3R)-2-(2-fluoro-2-methylpropyl)-3-methyl-2,3,4,9-tetrahydro-1H-pyrido[3,4-b]indol-1-yl)pyrimidin-2-yl)-3-azaspiro[5.5]undecan-9-yl)methyl)-1-oxo-1,3,5,5a,6,7,8,9-octahydro-2H-pyrazino[1′,2′:4,5][1,4]oxazino[2,3-e]isoindol-2-yl)piperidine-2,6-dione] | > 10 nM |
